Data taken from patent US20230365959A1, “METHOD FOR IMPROVING THE STABILITY OF A COMPOSITION COMPRISING A FLAVIN-DEPENDENT LACTATE DEHYDROGENASE” (KIKKOMAN CORPORATION, priority 2020, published 2023).

Legend:
Type in all cases: biochemical
[1] = tested on: lactate dehydrogenase from Ogataea parapolymorpha (OgLDH); assay: Thermal stability of OgLDH (residual activity ratio after heat treatment); settings: OgLDH 2 U/mL; compound 300 mM; potassium phosphate buffer pH 7.5; 50°C for 15 minutes
Description: (§1) The thermal stability of LDH was evaluated by heating LDH at a given temperature for a given time and comparing the activities before and after heating. […] Further, LDH activity of an LDH solution allowed to stand still on ice without any heat treatment was measured. Based on the activity of this case without any heat treatment taken as 100, the activities of LDH solutions after heat treatment were calculated to determine the residual activity ratio (%). More specifically, the residual activity ratio (%) can be obtained by measuring LDH activity value (a) of a solution before heat treatment or before long-term storage, and LDH activity value (b) of a solution after heat treatment or after long-term storage, and then, calculating ((b)/(a)×100).
(§2) The activity of LDH was determined in accordance with the following procedure. […] Subsequently, a 30 mM PMS solution (50 μL) and an enzyme sample solution (50 μL) were added to the mixture to initiate a reaction. Absorbance at 520 nm was measured at the time of initiation of the reaction and over time and, the degree of reduction (ΔA520) in absorbance per minute as the enzymatic reaction progresses was obtained and LDH activity was calculated in accordance with the following Mathematical formula 2. Here, LDH activity is expressed by an enzyme (LDH) unit, and 1U is defined as the amount of the enzyme that can reduce 1 μmol DCIP per minute at 37° C. in the presence of 10 mM L-lactate.
Stability evaluation tests were conducted to check the improvement effect of malic acid on the stability of various LDHs. […] Each of these diluted enzyme solutions (a mixture of an enzyme and L-malic acid, LDH concentration: 2 U/mL, L-malic acid concentration: 300 mM) was heated in accordance with the thermal-stability evaluation method described in Section 4. More specifically, PkLDH was treated at 55° C., whereas, CaLDH and OgLDH were treated at 50° C. for 15 minutes and then the residual activity ratio (%) was calculated, based on the activity before heating taken as 100. As a comparative example, a sample without adding any L-malic acid in the enzyme diluent was subjected to the same experiment, and the ratio of residual activity in both cases were compared.
(§3) Using the purified OgLDH preparation obtained above, the ratios of remaining activities (%) in the presence and absence of a LDH stabilizer were compared in accordance with the LDH thermal stability evaluation method described in Section 4. In this manner, a stabilizer was searched.
The pH of the LDH solution was adjusted to be 7.5 after each of the compounds was added. Heat treatment was carried out at 50° C. for 15 minutes.

[2] = target: T1, lactate dehydrogenase from Saccharomyces cereviciae (ScLDH) (Saccharomyces cerevisiae, UniProt P00175); assay: Thermal stability of ScLDH (supernatant of crushed bacterial cells); settings: ScLDH 2 U/mL; compound 300 mM; potassium phosphate buffer pH 7.5; 40°C for 15 minutes
T1 construct: made in house; host or cells: Escherichia coli BL21 (pKK223-3-ScLDH); unpurified supernatant of crushed cells
T1 sequence (P00175 86-591): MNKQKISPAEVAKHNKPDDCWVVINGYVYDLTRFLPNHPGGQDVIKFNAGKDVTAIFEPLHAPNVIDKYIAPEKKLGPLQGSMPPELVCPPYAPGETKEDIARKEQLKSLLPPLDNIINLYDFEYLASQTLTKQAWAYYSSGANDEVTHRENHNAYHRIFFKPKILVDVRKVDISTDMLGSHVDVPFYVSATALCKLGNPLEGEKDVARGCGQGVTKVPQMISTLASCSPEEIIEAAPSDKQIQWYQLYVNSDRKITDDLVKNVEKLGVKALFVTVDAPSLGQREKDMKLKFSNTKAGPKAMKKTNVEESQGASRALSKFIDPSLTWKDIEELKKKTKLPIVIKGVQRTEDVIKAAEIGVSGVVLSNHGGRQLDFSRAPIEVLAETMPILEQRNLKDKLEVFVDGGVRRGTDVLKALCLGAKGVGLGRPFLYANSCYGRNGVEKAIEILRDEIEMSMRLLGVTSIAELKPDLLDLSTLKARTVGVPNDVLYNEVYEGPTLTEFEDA
Description: as §1, §2
as §3, with “supernatant of a solution comprising crushed ScLDH bacterial cells” for “purified OgLDH preparation”
The pH of the LDH solution was adjusted to be 7.5 after each of the compounds was added. Heat treatment was carried out at 40° C. for 15 minutes.

[3] = tested on: lactate dehydrogenase from Pichia kudriavzevii (PkLDH); assay: Thermal stability of PkLDH in 150 mM HEPES buffer; settings: PkLDH 2 U/mL; 150 mM HEPES buffer pH 7.5; added compound 350 mM; 55°C for 15 minutes
Description: as §1
as §2, with “Here, LDH activity is expressed by an enzyme (LDH) unit, and 1U is defined as the amount of the enzyme that can reduce 1 μmol DCIP per minute at 37° C. in the presence of 10 mM L-lactate.” left out

[4] = tested on: lactate dehydrogenase from Pichia kudriavzevii (PkLDH); assay: Chronoamperometry with printed electrode to which PkLDH plus stabilizer was applied and dried (2 mM mPMS/PBS); settings: added compound 50 mM, LDH 1 U dried at 40°C for 60 minutes, +200 mV
Description: An enzyme electrode was prepared using the purified PkLDH preparation obtained above and chronoamperometry was carried out. Each of the compounds was added to an enzyme solution in advance and tested whether or not a stabilizing effect of the enzyme during a drying step was exerted. LDH (1 U) solutions comprising compounds in a concentration (0.2% (w/v), 2% (w/v) and 50 mM, respectively) as described in Table 8 were each applied to a screen-printed carbon electrode C110 (manufactured by Metrohm-Dropsens) in an amount of 4 μL and dried at 40° C. for 60 minutes. The same procedure was repeated using an LDH solution without adding any one of the compounds. Each of the electrodes prepared was connected to ALS electrochemical analyzer 814D (manufactured by BAS) using a dedicated connector (DRP-CAC, manufactured by Drop Sense). Subsequently, 100 μL of a 2 mM mPMS/PBS solution was added dropwise to dissolve the dried LDH. The applied voltage was +200 mV (vs Ag/Ag+). An L-sodium lactate solution was added and a response current value 5 seconds after initiation of measurement was recorded. […] Then, an L-sodium lactate solution was added such that the final concentration thereof would be 2 to 10 mM, and a response current value 5 seconds after initiation of measurement was recorded.

O=C([O-])CC(=O)[O-].[Na+].[Na+] [disodium malonate]
LDH stability improving effect [1]: 96% | stability improving effect on ScLDH [2]: 26% | Residual activity ratio (%) [3]: 101% | Current value 5 seconds later (μA), 0 mM lactate ([4]; 0 mM lactate): 0.21 μA | Current value 5 seconds later (μA), 2 mM lactate ([4]; 2 mM lactate): 61.8 μA
